Results taken from PMC8949525, “Essential Elements and Isoflavonoids in the Prevention of Prostate Cancer” (Nutrients, 2022).
Like-named read-outs stand apart in the source and are kept apart here.

Experiments:
[1] = system: S. typhimurium TA1535/pSK1002; details: for decrease in 2AA genotoxicity: range over 2AA 5 mg/L and 1 mg/L
Protocol: (§1) The umu-test detects the induction of bacterial DNA-damage response, the SOS system, in the strain S. typhimurium TA1535/pSK1002. The test strain carries pSK1002 plasmid, which contains the fusion of umuC, encoding one of SOS response proteins, and lacZ genes. The expression of β-galactosidase protein is fully controlled by umuC gene.
(§2) In the present study, the umu-test was performed in the micro-plate format according to the ISO guideline. The β-galactosidase activity was determined by the degree of ONPG cleavage measured as sample absorbance at 420 nm. The extent of SOS system activation was presented as induction ratio (IR), calculated as the ratio of β-galactosidase activity in the presence of the tested compound(s) to that of negative control. […] The optical density at 600 nm was used to describe the bacteria growth. […] Both measurements were performed with Asys UVM340 Hightech microplate spectrophotometer.
The S9 fraction from rat liver was used for metabolic activation of the tested compounds and the model mutagen. […] The P450 cytochrome level in the isolate was evaluated and the aliquots were stored at −80 °C. The S9 reaction mix was prepared as described by Maron and Ames.
(§3) In order to the establish anti-genotoxic potential of tested compounds, their effects on the action of two model genotoxic agents, 4NQO without the metabolic activation with rat liver S9 fraction and 2AA with metabolic activation, were evaluated. […] Subsequently, the modulation of 4NQO and 2AA genotoxicity by the isoflavones, the elements and their mixtures in previously used concentrations was investigated.

[2] = system: LNCaP prostate cancer cells; test: LNCaP cell proliferation (bisbenzimide H 33258-DNA fluorescence); format: cell-based, human; details: isoflavone 10 μM, Zn 0.5, Se 0.03, Cu 0.5, Fe 1.5, Ca 40 μg/mL
Protocol: LNCaP cells (passage 12–18) were maintained in DMEM medium supplemented with 10% (v/v) FBS, sodium pyruvate (1 mM), penicillin (100 U/mL) and streptomycin (100 μg/mL) at 37 °C in 5% CO2 humidified atmosphere.
The final concentration of DMSO was 0.05%. It must be noted that DMEM contains 1.8 mM of calcium. […] The cells were then gently washed with 0.9% saline and lysed by brief sonication in deionised water. The cell proliferation was quantified by measurement of bisbenzimide H 33,258–DNA complexes fluorescence on Synergy 4 microplate reader with Gen5 software (BioTek Instruments Inc., 100 Tigan St, Winooski, VT 05404, USA).

[3] = system: S. typhimurium TA1535/pSK1002; details: for G (growth ratio): −S9, NQO line = genotoxin alone; for anti-genotoxic activity against 4NQO (summary class): cells cover 4NQO […] and 0.05 mg/L, the single + corresponds to […] (Table 2)
Protocol: as §1, §2, §3

LNCaP cells = test: LNCaP viability/apoptosis, Hoechst 33258 fluorescent imaging; format: cell-based, human; details: 48 h, Hoechst 33258 stain; genistein, Se, Fe; camptothecin 2 µM positive control
Protocol: The images were recorded with the DS-Fi1 camera connected with Eclipse TS100F inverted microscope with Epi-Fluorescent attachment (DAPI filter) and NIS-Elements BR 2.3 software.

[4] = 2AA 1 mg/L, +S9 (second symbol of the cell)
[5] = 2AA 1 mg/L, +S9, genistein 10 μM and/or mineral added (Table 5), 2AA line = genotoxin alone
[6] = 2AA 5 mg/L, +S9 (first symbol of the cell)
[7] = inhibition of IR induced by 2AA 1 mg/L, +S9 (Table 5)
[8] = inhibition of IR induced by 2AA 5 mg/L, +S9 (Table 5)
[9] = 4NQO 0.05 mg/L, genistein 10 μM and/or mineral added (Table 2)
[10] = 4NQO […], genistein 10 μM and/or mineral added (Table 2)
[11] = 2AA 5 mg/L, +S9, genistein 10 μM and/or mineral added (Table 5), 2AA line = genotoxin alone
[12] = −S9, isoflavone 10 μM, minerals Zn 0.5, Se 0.03, Cu 0.5, Fe 1.5, Ca 40 μg/mL
[13] = 2AA 1 mg/L, +S9, daidzein or equol 10 μM with or without mineral (Table 6), 2AA line = genotoxin alone
[14] = 2AA 5 mg/L, +S9, daidzein or equol 10 μM with or without mineral (Table 6), 2AA line = genotoxin alone

Compound	anti-genotoxic activity against 2AA (summary class) [1, 4]	G (growth ratio) [1, 5]	anti-genotoxic activity against 2AA (summary class) [1, 6]	%Anti-Genotox. [1, 7] [%]	%Anti-Genotox. [1, 8] [%]	decrease in 2AA genotoxicity ([1]; +S9)	LNCaP proliferation, % of control ([2]; 48 h incubation) [%]	G (growth ratio) [3, 9]	G (growth ratio) [3, 10]	G (growth ratio) [1, 11]	G (growth ratio) [1, 12]	LNCaP proliferation, % of control ([2]; 24 h incubation) [%]	apoptosis / morphology of LNCaP cells (LNCaP cells)	anti-genotoxic activity against 4NQO (summary class) [3]	other results
O=S(=O)([O-])[O-].[Cu+2] [Cu, copper(II)/cupric sulphate]	++ ++ (anti-genotoxicty of used compound(s) 21–40%)	1.11 ± 0.12	++ ++ (anti-genotoxicty of used compound(s) 21–40%)	33	26	26–33%	80 ± 14	0.98 ± 0.10	1.00 ± 0.12	–	–	–	–	–	–
O=S(=O)([O-])[O-].[Zn+2] [Zn, Zinc sulphate]	–	–	–	–	–	–	82 ± 10	–	–	–	–	–	–	–	–
O=c1c(-c2ccc(O)cc2)coc2cc(O)cc(O)c12 [gen, genistein]	++ (anti-genotoxicty of used compound(s) 21–40%)	–	+ (anti-genotoxicty of used compound(s) ≤ 20%)	32	17	17–32%	55 ± 9	–	1.12 ± 0.24	1.21 ± 0.17	1.28 ± 0.35	72 ± 9	did not induce apoptosis	+ (anti-genotoxicty of used compound(s) ≤ 20%)	–
CC[C@@]1(O)C(=O)OCc2c1cc1n(c2=O)Cc2cc3ccccc3nc2-1 [camptothecin, reference compound]	–	–	–	–	–	–	–	–	–	–	–	–	condensed chromatin or apoptotic nuclei	–	–
O=[Se](=O)([O-])[O-].[Na+].[Na+] [Se, sodium selenate]	–	1.18 ± 0.10	–	–	–	–	84 ± 11	1.10 ± 0.09	1.11 ± 0.05	1.17 ± 0.12	1.14 ± 0.11	–	did not induce apoptosis	–	–
Oc1ccc([C@H]2COc3cc(O)ccc3C2)cc1 [eq, equol]	+ (anti-genotoxicty of used compound(s) ≤ 20%)	–	++ (anti-genotoxicty of used compound(s) 21–40%)	–	–	29–34%	60 ± 9	–	–	–	1.18 ± 0.33	81 ± 9	–	–	G (growth ratio) [1, 13]: 0.99 ± 0.11; %Anti-Genotox. ([1]; inhibition of IR induced by 2AA 1 mg/L, +S9 (Table 6)): 34%; %Anti-Genotox. ([1]; inhibition of IR induced by 2AA 5 mg/L, +S9 (Table 6)): 29%; G (growth ratio) ([3]; 4NQO […], daidzein or equol 10 μM with or without mineral (Table 3)): 0.97 ± 0.26
O=c1c(-c2ccc(O)cc2)coc2cc(O)ccc12 [dai, daidzein]	–	–	–	–	–	–	70 ± 7	–	–	–	–	84 ± 10	–	–	–
Nc1ccc2cc3ccccc3cc2c1 [2AA, 2-aminoanthracene, reference compound]	–	1.00 ± 0.07	–	–	–	–	–	–	–	1.02 ± 0.08	–	–	–	–	G (growth ratio) [1, 13]: 0.92 ± 0.10; IR (induction ratio) [1, 13]: 2.37 ± 0.48; IR (induction ratio) [1, 5]: 2.00 ± 0.53; G (growth ratio) [1, 14]: 0.86 ± 0.09; IR (induction ratio) [1, 14]: 2.91 ± 0.54; IR (induction ratio) [1, 11]: 2.17 ± 0.39
O=S(=O)([O-])[O-].[Fe+2] [Fe, iron(II) sulphate]	++ (anti-genotoxicty of used compound(s) 21–40%)	1.10 ± 0.06	+ (anti-genotoxicty of used compound(s) ≤ 20%)	21	14	14–21%	–	1.10 ± 0.10	–	–	–	–	did not induce apoptosis	+ (anti-genotoxicty of used compound(s) ≤ 20%)	G (growth ratio) ([1]; +S9, isoflavone 10 μM, minerals Zn 0.5, Se 0.03, Cu 0.5, Fe 1.5, Ca 40 μg/mL): 0.98 ± 0.10
[Ca+2].[Cl-].[Cl-] [Ca, calcium chloride]	–	–	–	–	–	–	80 ± 9	1.13 ± 0.08	1.11 ± 0.05	1.19 ± 0.13	1.11 ± 0.09	–	–	+ (anti-genotoxicty of used compound(s) ≤ 20%)	–
